# Several values for one entry are separate records, joined by “and”; a condition that tells them apart may be missing. Equal values may be shown once. Inconclusive results and toxic doses are left out.
# Tested on: L1210 leukemia ip in BDF1 mice, survival T/C
# Test: NCI In Vivo Anticancer Drug Screen. Data for tumor model L1210 Leukemia (intraperitoneal) in B6D2F1 (BDF1) mice
# Conditions: higher = longer survival
# Summary of the method: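 In this screen, tumor-bearing mice given compound are compared to those given vehicle, and their survival values are reported as a treated-to-control quotient.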
# [1] = endpoint: mean survival time, dose: 100.0 mg/kg/injection, schedule: Q04DX003 (ip), vehicle: Klucel (hydroxypropylcellulose) (HPC)
# [2] = endpoint: mean survival time, dose: 200.0 mg/kg/injection, schedule: Q04DX003 (ip), vehicle: Klucel (hydroxypropylcellulose) (HPC)
# [3] = endpoint: mean survival time, dose: 400.0 mg/kg/injection, schedule: Q04DX003 (ip), vehicle: Klucel (hydroxypropylcellulose) (HPC)
smiles,measurement,setting,value
N#[N+]c1cnc([O-])[nH]c1=O,T/C,"endpoint: mean survival time, dose: 0.31 mg/kg/injection, schedule: Q#A X Z (ip), vehicle: methylcellulose (MC)",103 % of control
same,T/C,"endpoint: mean survival time, dose: 0.6 mg/kg/injection, schedule: Q01DX Z (im), vehicle: saline",102 % of control
same,T/C,"endpoint: mean survival time, dose: 0.6 mg/kg/injection, schedule: Q01DX Z (ip), vehicle: saline",104 % of control
same,T/C,"endpoint: mean survival time, dose: 0.62 mg/kg/injection, schedule: Q#A X Z (ip), vehicle: methylcellulose (MC)",108 % of control
same,T/C,"endpoint: mean survival time, dose: 1.0 mg/kg/injection, schedule: Q01DX009 (ip), vehicle: saline",119 % of control
same,T/C,"endpoint: mean survival time, dose: 1.2 mg/kg/injection, schedule: Q01DX Z (ip), vehicle: saline",120 % of control
same,T/C,"endpoint: mean survival time, dose: 1.75 mg/kg/injection, schedule: Q01DX Z (ip), vehicle: carboxymethylcellulose (CMC)",115 % of control
same,T/C,"endpoint: mean survival time, dose: 2.0 mg/kg/injection, schedule: Q01DX009 (sc), vehicle: carboxymethylcellulose (CMC)",103 % of control
same,T/C,"endpoint: mean survival time, dose: 2.5 mg/kg/injection, schedule: Q01DX006 (iv), vehicle: saline",110 % of control
same,T/C,"endpoint: mean survival time, dose: 2.5 mg/kg/injection, schedule: Q01DX010 (ip), vehicle: saline",107 % of control
same,T/C,"endpoint: mean survival time, dose: 2.5 mg/kg/injection, schedule: Q01DX Z (sc), vehicle: steriod suspending solution",112 % of control
same,T/C,"endpoint: mean survival time, dose: 3.75 mg/kg/injection, schedule: Q03DX Z (ip), vehicle: methylcellulose (MC)",123 % of control
same,T/C,"endpoint: mean survival time, dose: 4.0 mg/kg/injection, schedule: Q01DX001 (sc), vehicle: carboxymethylcellulose (CMC)",100 % of control
same,T/C,"endpoint: mean survival time, dose: 4.0 mg/kg/injection, schedule: Q01DX009 (sc), vehicle: carboxymethylcellulose (CMC)",105 % of control
same,T/C,"endpoint: mean survival time, dose: 4.0 mg/kg/injection, schedule: Q## X008 (ip), vehicle: carboxymethylcellulose (CMC)",120 % of control
same,T/C,"endpoint: mean survival time, dose: 4.0 mg/kg/injection, schedule: Q## X016 (ip), vehicle: carboxymethylcellulose (CMC)",119 % of control
same,T/C,"endpoint: mean survival time, dose: 4.0 mg/kg/injection, schedule: Q## X024 (ip), vehicle: carboxymethylcellulose (CMC)",118 % of control
same,T/C,"endpoint: mean survival time, dose: 5.0 mg/kg/injection, schedule: Q01DX006 (iv), vehicle: saline",115 % of control
same,T/C,"endpoint: mean survival time, dose: 5.0 mg/kg/injection, schedule: Q01DX Z (ip), vehicle: saline",113 % of control and 118 % of control
same,T/C,"endpoint: mean survival time, dose: 5.0 mg/kg/injection, schedule: Q04DX003 (ip), vehicle: Klucel (hydroxypropylcellulose) (HPC)",124 % of control
same,T/C,"endpoint: mean survival time, dose: 5.0 mg/kg/injection, schedule: Q04DX003 (ip), vehicle: saline",104 % of control and 123 % of control
same,T/C,"endpoint: mean survival time, dose: 8.0 mg/kg/injection, schedule: Q01DX001 (sc), vehicle: carboxymethylcellulose (CMC)",103 % of control
same,T/C,"endpoint: mean survival time, dose: 8.0 mg/kg/injection, schedule: Q01DX009 (ip), vehicle: carboxymethylcellulose (CMC)",165 % of control
same,T/C,"endpoint: mean survival time, dose: 8.0 mg/kg/injection, schedule: Q01DX009 (ip), vehicle: saline",121 % of control
same,T/C,"endpoint: mean survival time, dose: 8.0 mg/kg/injection, schedule: Q01DX009 (sc), vehicle: carboxymethylcellulose (CMC)",107 % of control
same,T/C,"endpoint: mean survival time, dose: 8.0 mg/kg/injection, schedule: Q## X016 (ip), vehicle: carboxymethylcellulose (CMC)",120 % of control
same,T/C,"endpoint: mean survival time, dose: 8.0 mg/kg/injection, schedule: Q## X024 (ip), vehicle: carboxymethylcellulose (CMC)",120 % of control
same,T/C,"endpoint: mean survival time, dose: 8.75 mg/kg/injection, schedule: Q07DX Z (ip), vehicle: methylcellulose (MC)",112 % of control
same,T/C,"endpoint: mean survival time, dose: 9.49 mg/kg/injection, schedule: Q01DX Z (oral), vehicle: carboxymethylcellulose (CMC)",98 % of control
same,T/C,"endpoint: mean survival time, dose: 10.0 mg/kg/injection, schedule: Q01DX005 (ip), vehicle: Klucel (hydroxypropylcellulose) (HPC)",157 % of control
same,T/C,"endpoint: mean survival time, dose: 10.0 mg/kg/injection, schedule: Q01DX006 (iv), vehicle: saline",106 % of control and 108 % of control
same,T/C,"endpoint: mean survival time, dose: 10.0 mg/kg/injection, schedule: Q01DX010 (ip), vehicle: saline",155 % of control
same,T/C,"endpoint: mean survival time, dose: 10.0 mg/kg/injection, schedule: Q01DX Z (im), vehicle: saline",118 % of control
same,T/C,"endpoint: mean survival time, dose: 10.0 mg/kg/injection, schedule: Q01DX Z (oral), vehicle: saline",106 % of control
same,T/C,"endpoint: mean survival time, dose: 10.0 mg/kg/injection, schedule: Q04DX003 (ip), vehicle: Klucel (hydroxypropylcellulose) (HPC)",124 % of control
same,T/C,"endpoint: mean survival time, dose: 10.0 mg/kg/injection, schedule: Q04DX003 (ip), vehicle: saline",114 % of control
same,T/C,"endpoint: mean survival time, dose: 14.2 mg/kg/injection, schedule: Q01DX Z (oral), vehicle: carboxymethylcellulose (CMC)",101 % of control
same,T/C,"endpoint: mean survival time, dose: 15.0 mg/kg/injection, schedule: Q01DX001 (ip), vehicle: saline",122 % of control and 91 % of control
same,T/C,"endpoint: mean survival time, dose: 15.0 mg/kg/injection, schedule: Q03DX Z (ip), vehicle: methylcellulose (MC)",152 % of control
same,T/C,"endpoint: mean survival time, dose: 16.0 mg/kg/injection, schedule: Q01DX001 (sc), vehicle: carboxymethylcellulose (CMC)",101 % of control
same,T/C,"endpoint: mean survival time, dose: 16.0 mg/kg/injection, schedule: Q01DX009 (sc), vehicle: carboxymethylcellulose (CMC)",124 % of control
same,T/C,"endpoint: mean survival time, dose: 16.0 mg/kg/injection, schedule: Q## X024 (ip), vehicle: carboxymethylcellulose (CMC)",115 % of control
same,T/C,"endpoint: mean survival time, dose: 17.5 mg/kg/injection, schedule: Q07DX Z (ip), vehicle: methylcellulose (MC)",124 % of control
same,T/C,"endpoint: mean survival time, dose: 20.0 mg/kg/injection, schedule: Q01DX006 (iv), vehicle: saline",102 % of control and 120 % of control
same,T/C,"endpoint: mean survival time, dose: 20.0 mg/kg/injection, schedule: Q01DX Z (oral), vehicle: saline",115 % of control
same,T/C,"endpoint: mean survival time, dose: 20.0 mg/kg/injection, schedule: Q04DX003 (ip), vehicle: saline",116 % of control and 119 % of control
same,T/C,"endpoint: mean survival time, dose: 21.3 mg/kg/injection, schedule: Q01DX Z (oral), vehicle: carboxymethylcellulose (CMC)",97 % of control
same,T/C,"endpoint: mean survival time, dose: 29.0 mg/kg/injection, schedule: Q01DX001 (ip), vehicle: alkali diluted with saline",153 % of control
same,T/C,"endpoint: mean survival time, dose: 32.0 mg/kg/injection, schedule: Q01DX Z (oral), vehicle: carboxymethylcellulose (CMC)",104 % of control
same,T/C,"endpoint: mean survival time, dose: 32.0 mg/kg/injection, schedule: Q01DX Z (oral), vehicle: methylcellulose (MC)",95 % of control
same,T/C,"endpoint: mean survival time, dose: 40.0 mg/kg/injection, schedule: Q01DX006 (iv), vehicle: saline",113 % of control
same,T/C,"endpoint: mean survival time, dose: 40.0 mg/kg/injection, schedule: Q01DX009 (oral), vehicle: carboxymethylcellulose (CMC)",104 % of control
same,T/C,"endpoint: mean survival time, dose: 40.0 mg/kg/injection, schedule: Q01DX Z (oral), vehicle: saline",107 % of control and 116 % of control
same,T/C,"endpoint: mean survival time, dose: 80.0 mg/kg/injection, schedule: Q01DX009 (oral), vehicle: carboxymethylcellulose (CMC)",109 % of control
same,T/C,"endpoint: mean survival time, dose: 80.0 mg/kg/injection, schedule: Q01DX Z (oral), vehicle: saline",106 % of control
same,T/C,"endpoint: mean survival time, dose: 160.0 mg/kg/injection, schedule: Q01DX001 (oral), vehicle: carboxymethylcellulose (CMC)",104 % of control
same,T/C,"endpoint: mean survival time, dose: 240.0 mg/kg/injection, schedule: Q01DX001 (oral), vehicle: carboxymethylcellulose (CMC)",102 % of control
same,T/C,"endpoint: median survival time, dose: 5.0 mg/kg/injection, schedule: Q01DX009 (ip), vehicle: saline",164 % of control
same,T/C,"endpoint: median survival time, dose: 10.0 mg/kg/injection, schedule: Q01DX009 (ip), vehicle: saline",172 % of control and 200 % of control
COc1ccc2c(O)c(Oc3ccccc3)c(=O)oc2c1,T/C,"endpoint: mean survival time, dose: 100.0 mg/kg/injection, schedule: Q04DX003 (ip), vehicle: saline",87 % of control
same,T/C,"endpoint: mean survival time, dose: 200.0 mg/kg/injection, schedule: Q04DX003 (ip), vehicle: saline",97 % of control
COc1cccc(CCNC(=O)CCC#N)c1,T/C,"endpoint: mean survival time, dose: 75.0 mg/kg/injection, schedule: Q01DX009 (ip), vehicle: saline",112 % of control
same,T/C,[1],97 % of control
same,T/C,"endpoint: mean survival time, dose: 150.0 mg/kg/injection, schedule: Q01DX009 (ip), vehicle: saline",93 % of control
same,T/C,[2],87 % of control
same,T/C,"endpoint: mean survival time, dose: 300.0 mg/kg/injection, schedule: Q01DX009 (ip), vehicle: saline",100 % of control
same,T/C,[3],90 % of control
CC(=O)Oc1ccc2c(c1)C(=O)CCCCCC(=O)O2,T/C,"endpoint: mean survival time, dose: 50.0 mg/kg/injection, schedule: Q04DX003 (ip), vehicle: saline with Tween-80",95 % of control
same,T/C,"endpoint: mean survival time, dose: 200.0 mg/kg/injection, schedule: Q04DX003 (ip), vehicle: saline with Tween-80",117 % of control
CC1CN=C(c2ccc(NC(=O)NCCCNC(=O)Nc3ccc(C4=NCC(C)N4)cc3)cc2)N1 (stereo unspecified),T/C,"endpoint: mean survival time, dose: 30.0 mg/kg/injection, schedule: Q01DX015 (ip), vehicle: methylcellulose (MC)",150 % of control
CC(C)=CCCC(O)C1CCC2C3CCC4CCCCC4(C)C3CCC12C (stereo unspecified),T/C,"endpoint: mean survival time, dose: 100.0 mg/kg/injection, schedule: Q04DX002 (ip), vehicle: DMSO",96 % of control
same,T/C,"endpoint: mean survival time, dose: 200.0 mg/kg/injection, schedule: Q04DX002 (ip), vehicle: DMSO",96 % of control
same,T/C,"endpoint: mean survival time, dose: 400.0 mg/kg/injection, schedule: Q04DX002 (ip), vehicle: DMSO",92 % of control
Nc1nc(N)c(CCCOc2ccc(NC(=O)c3cccc(S(=O)OF)c3)cc2)c(N)n1 (stereo unspecified),T/C,"endpoint: mean survival time, dose: 0.8 mg/kg/injection, schedule: Q01DX015 (ip), vehicle: saline",97 % of control
same,T/C,"endpoint: mean survival time, dose: 4.0 mg/kg/injection, schedule: Q01DX015 (ip), vehicle: saline",97 % of control
same,T/C,"endpoint: mean survival time, dose: 20.0 mg/kg/injection, schedule: Q01DX015 (ip), vehicle: saline",95 % of control
same,T/C,"endpoint: mean survival time, dose: 100.0 mg/kg/injection, schedule: Q01DX015 (ip), vehicle: saline",106 % of control
same,T/C,"endpoint: mean survival time, dose: 133.0 mg/kg/injection, schedule: Q01DX015 (ip), vehicle: saline",91 % of control
Cc1cc(C)c(C(=O)C2CC=CCC2c2c(C)cc(C)cc2C)c(C)c1 (stereo unspecified),T/C,[1],101 % of control
same,T/C,[2],94 % of control
same,T/C,[3],95 % of control

# From PubChem BioAssay AID248 (DTP/NCI, 2004)
